Data reported in patent US20210145830A1, “MATERIALS AND METHODS FOR TREATING CANCER” (Mayo Foundation for Medical Education and Research, priority 2018, published 2021).

Key:
[1] = test system: regulatory T cells (Treg); test: Regulatory T cell expansion (anti-CD3/CD28 beads, IL-2); assay type: cell-based, human
Description: (§1) FIGS. 19A-F. A. Inhibitory receptors expression in naïve T cells after TCR activation with CD3 stimulation in the increasing dose of TP0903. Naïve T cells were incubated with anti CD3/CD28 beads at a 1 to 3 ratio in the presence of TP0903. At day 3, T cells were stained with PD-1, TIM-3, LAG-3, and ICOS. […] Teff cells were isolated by negative selection using Human T Cell Isolation Kit. Tregs were isolated by negative selection using the human CD4^+CD127^lowCD25^+ Treg isolation kit. Teff and Treg were stimulated with anti CD3/CD28 beads and 400 U/ml of IL-2. At day 5, total T cells were evaluated via CountBright quantification. C. CART19 cytokine assay in the presence TP0903. UTDs or CART19 were incubated with Jeko in the presence of TP-0903 at a 1 to 1 ratio. Supernatant was harvested and analyzed by 32-plex Luminex array after 3 days. D. Inhibitory receptors expression in CART19 cells in the presence TP0903. UTDs or CART19 were incubated with Jeko at a 1 to 1 E/T ratio in the presence of TP0903. At day 5, T cells were stained with PD-1 (left), LAG-3 (right), and TIM-3. […] Cell killing was assessed by luminescence at 24 hours. […]
(§2) FIG. 21A-E. TP0903 modulates naïve T cells function upon stimulation of PMA/Ionomycin in vitro. […] At day 5, total T cells were evaluated via CountBright quantification.

Effector T cells (Teff) = test: Effector T cell expansion (anti-CD3/CD28 beads, IL-2); assay type: cell-based, human; details: anti-CD3/CD28 beads + 400 U/ml IL-2; day 5
Description: as §1, §2

JeKo = test: MCL (JeKo) xenograft in NSG mice with re-challenge; assay type: in vivo
Description: FIGS. 19A-F. A. Inhibitory receptors expression in naïve T cells after TCR activation with CD3 stimulation in the increasing dose of TP0903. Naïve T cells were incubated with anti CD3/CD28 beads at a 1 to 3 ratio in the presence of TP0903. At day 3, T cells were stained with PD-1, TIM-3, LAG-3, and ICOS. […] Teff cells were isolated by negative selection using Human T Cell Isolation Kit. Tregs were isolated by negative selection using the human CD4^+CD127^lowCD25^+ Treg isolation kit. Teff and Treg were stimulated with anti CD3/CD28 beads and 400 U/ml of IL-2. At day 5, total T cells were evaluated via CountBright quantification. C. CART19 cytokine assay in the presence TP0903. UTDs or CART19 were incubated with Jeko in the presence of TP-0903 at a 1 to 1 ratio. Supernatant was harvested and analyzed by 32-plex Luminex array after 3 days. D. Inhibitory receptors expression in CART19 cells in the presence TP0903. UTDs or CART19 were incubated with Jeko at a 1 to 1 E/T ratio in the presence of TP0903. At day 5, T cells were stained with PD-1 (left), LAG-3 (right), and TIM-3. E. CART19 cytotoxicity in the presence TP0903: CART19 or UTDs were co-cultured at different effector-to-target ratios (E:T) with luciferase-positive Jeko in the presence of increasing doses of TP0903. Cell killing was assessed by luminescence at 24 hours. F. TP0903 enhanced CART cell persistence in vivo. NSG mice were injected with 1.0×10^6 luciferase-positive JeKo on day −7. At day 0, mice were randomized according to tumor burden to receive vehicle, TP0903 20 mg/kg/day, […] CART19, or TP0903 20 mg/kg/day+0.5×10^6 CART19. At day 21, mice were re-challenged with JeKo.
FIG. 25A-E. Impact of the combinatory therapy in vivo. A. Schema for in vivo experiment. B and C. […] D. Reduction of MCP-1, which is known as CRS related cytokine in the presence of TP0903. E. Expansion of circulating CART19 after re-challenging Luciferase positive JeKo-1.
NOD-SCID-γ chain−/− (NSG) originally obtained from Jackson Laboratories were maintained in our laboratory under an IACUC approved breeding protocol. Schemas of the utilized xenograft models are discussed in detail in the relevant figures and the Results section. Cells were injected in 200 μL of phosphate-buffered saline at the indicated concentration into the tail veins of mice. Bioluminescent imaging was performed using a Xenogen IVIS-200 Spectrum camera. Images were acquired and analyzed using Living Image version 4.4 (Caliper LifeSciences, Inc., PerkinElmer).
To investigate the effect of AXL RTK inhibition of CART cells with TP0903 in vivo, MCL xenografts were established through the injection of 1.0×10^6 of JeKo into NSG mice. A week after the injection of JeKo, mice were treated with either vehicle alone, TP0903 (20 mg/kg/day) alone, 0.5×10^6 of CART19 alone, or TP0903 (20 mg/kg/day)+0.5×10^6 of CART19. Three weeks after the treatment, mice were rechallenged with 1.0×10^6 of JeKo.

Naïve T cells [2] = test: Inhibitory receptor expression in stimulated naïve T cells; assay type: cell-based; details: PMA/Ionomycin
Description: as §1, §2

[3] = test system: p-LCK, p38MAPK, GATA-3, T-bet in CART19 cells; test: Western blot of signaling molecules in stimulated CART19 cells; assay type: cell-based
Description: FIG. 24A-B. A. Western blot analysis of p-LCK inhibition by TP0903 in CART19 cells. CART19 cells were incubated with lethally irradiated JeKo-1 in the presence of TP0903 at a 1 to 3 ratio for 24 hours. After the incubation, CART19 cells were purified with anti-CD19 micro beads. […] B. Comparison of gene expression between TP0903 treated CART19 cells and non-treated CART19 cells subpopulations using RNA-seq. CART19 cells from three biological replicates were thawed and stimulated with irradiated JeKo-1 (120 Gy) for 5 days. Each sample was treated with either 30 nM TP0903 (treated condition) or DMSO (untreated condition). Representative flow cytometric analysis of CART19 cells before RNA isolation (right). RNA-seq was performed on an Illumina […] by the Genomic Sequencing Core at Mayo Clinic.

Naïve T cells [4] = test: Naïve T cell degranulation assay and cytokine production; assay type: cell-based; details: PMA/Ionomycin
Description: FIG. 21A-E. TP0903 modulates naïve T cells function upon stimulation of PMA/Ionomycin in vitro. A. Naïve T cell proliferation assay in the presence of TP0903. Naïve T cells were stimulated with 5 ng/ml of PMA and 0.1 μg/ml of Ionomycin in the absence or in the increasing dose of TP0903 (10-65 nM) for 3 days. […] B. At the end of the expansion on day 3, T cells were stained with inhibitory receptors. […] C. Naïve T cell degranulation assay and cytokine production in the presence of TP0903. Naïve T cells were stimulated with 50 ng/ml of PMA and 1 μg/ml of Ionomycin for 4 hours in the presence of increasing doses of TP0903 (10-65 nM). […] D. Western blot analysis of p-LCK and GATA-3 inhibition by TP0903 in naïve T cells. Naïve T cells were stimulated with 5 ng/ml of PMA and 0.1 ug/ml of Ionomycin in the absence (DMSO) or in the increasing dose of TP0903 (10-65 nM) for 24 hours. […] was used as loading control. E. TP0903 specifically reduces regulatory T cells (Treg). Effector T cells (Teff) were isolated by negative selection using RoboSep™ Human T Cell Isolation Kit (Stemcell Technologies). Tregs were isolated by negative selection using the human CD4^+CD127^lowCD25^+ Treg isolation kit (Stemcell Technologies). Teff and Treg were stimulated with anti-CD3/CD28 beads and 400 U/ml of IL-2. At day 5, total T cells were evaluated via CountBright quantification.

[5] = CART19 + irradiated JeKo-1, 24 hours, highest dose
[6] = CART19 + irradiated JeKo-1, 24 hours, highest dose (65 nM)

Q: For CN1CCN(Cc2ccc(Nc3ncc(Cl)c(Nc4ccccc4S(=O)(=O)N(C)C)n3)cc2)CC1 [TP0903], which Treg expansion ([1]; anti-CD3/CD28 beads + 400 U/ml IL-2, day 5) is on record?
A: The Treg expansion was “specifically reduced”.

Q: And the “Treg versus effector T cells” value ([1]; treated with TP0903 for 3 days)?
A: Its value is “preferential reduction”.

Q: And the Teff expansion (Effector T cells (Teff))?
A: The Teff expansion was “not interfered”.

Q: What about the “outcome of JeKo re-challenge” value (JeKo; TP0903 20 mg/kg/day + 0.5×10^6 CART19, re-challenge at three weeks) of the same compound?
A: The value was “successfully rejected”.

Q: What about the “CART cell persistence in vivo” value (JeKo; TP0903 20 mg/kg/day + CART19) of the same compound?
A: Its value is “enhanced”.

Q: What about the tumor burden (JeKo; combination of CART19 and TP0903 vs CART19 monotherapy) of the same compound?
A: The tumor burden was “superior low tumor burden”.

Q: What about the “circulating CART19” value (JeKo; combination, after re-challenging Luciferase positive JeKo-1) of the same compound?
A: Its value is “Expansion”.

Q: And the “MCP-1 (CRS related cytokine)” value (JeKo; in vivo, in the presence of TP0903)?
A: The value was “Reduction”.

Q: And the “inhibitory receptors (PD-1, LAG-3, TIM-3, and ICOS)” value (Naïve T cells [2]; day 3, high dose TP0903)?
A: Its value is “significantly downregulated”.

Q: What about the inhibitory receptors (Naïve T cells [2]; low dose TP0903) of the same compound?
A: The inhibitory receptors was “significant reduction”.

Q: What about the GATA-3 [3, 5] of the same compound?
A: The GATA-3 was “inhibited”.

Q: And the T-bet [3, 5]?
A: The T-bet was “inhibited”.

Q: What about the “phosphorylation of LCK” value [3, 6] of the same compound?
A: Its value is “modest inhibition”.

Q: And the “phosphorylation of p38MAPK” value [3, 6]?
A: Its value is “modest inhibition”.

Q: What about the “phosphorylation of LCK” value ([3]; T cell lysates, CART19, Example 2 text) of the same compound?
A: The value was “remarkably reduced”.

Q: And the IL-4 (Naïve T cells [4]; 4 hours, increasing dose of TP0903 (10-65 nM))?
A: Its IL-4 is “significant inhibition”.

Q: And the “cytokine production (Th1 / Th2 cytokines)” value (Naïve T cells [4]; low dose TP0903)?
A: The value was “favorably altered through the promotion of Th1 and reduction of Th2 cytokines”.
